Assay results as given in patent publication US8741559B2, “Cellular assay employing detectable protein” (DiscoveRx Corporation, priority 2009, dated 2014).

How the values were obtained:
FRAP1 = assay: Phospho-Akt1 (Ser473) cellular assay; format: cell-based, human; conditions: Hek 293 cells; for dose response in the phospho-Akt1 (Ser473) assay: FIG. 5; for IC50 through the FRAP1 pathway compared with the PDPK1 pathway: anti-phospho Akt1 (Ser473) versus anti-phospho Akt (Thr308) assays
Procedure: (§1) In this cellular assay, compounds were tested for their ability to inhibit Braf, by measuring the phosphorylation of Mek1, a direct kinase substrate of Braf. A375 cells expressing the constitutively active Braf V600E mutation were plated at a density of 3e5 cells/mL in a 10 cm plate and transfected with expression plasmid encoding detectable protein (16 μg) in 1 mL OPTI-MEM buffer (GIBCO/Invitrogen) with 40 μL Lipofectamine 2000 (Invitrogen) and incubated at 37° C. for 18-22 h. On the following day, media was removed and cells washed with PBS, trypsinized then quenched with M3 media (DMEM containing 10% FBS). Cells were counted and resuspended in M3 complete media to a density of […] and then plated at 50,000 cells/well/100 μL into a 96-well plate and incubated at 37° C. for 3h. Media was then removed and starvation media (0.5% FBS/DMEM) was added to the wells and allowed to incubate overnight. On the following day, the cells were incubated with compound in M3 starvation media and incubated at 37° C. for 2 hours.
The cells were centrifuged at 3000 rpm for 20 minutes. […] Lysate dilution was carried out in two steps. The 96-well plate containing 10 μL extract aliquot was thawed at room temp, and 40 microliters of a solution of 0.1% BSA /1× PBS 0.05% Tween with 2 nM nucleic acid tag serving as the NF-κB probe was added, and mixed by orbital shaking at 450 rpm at room temp for 10 min. Then 270 microliters of a solution of 20 microgram per mL sheared salmon sperm DNA in 0.1% BSA/1× PBS 0.05was added, and mixed gently by pipetting up and down.
On the following day, beads were pelleted then washed/blocked and resuspended in 1-2×2% BSA/PBST and plated out onto a 96-well polypropylene plate at half the original stock concentration. The phospho-MEK1 binding assay was carried out on a separate plate containing 25 μL of beads and 100 μL 2% BSA/PBST which was shaken until the addition of cell lysate. For the binding assay, beads were first pelleted and the buffer aspirated, and then 100 μL of diluted lysate was added to each well and the plate was shaken at room temperature for one hour. After the binding step, the beads were pelleted for 4 minutes, the buffer aspirated and 150 μL of PBST was added. The plate was briefly shaken and then pelleted over a magnet and then washed two to four times with wash buffer (1× PBS/0.05% Tween 20) to remove unbound proteins. After the final wash, the beads were resuspended in 150 μL of IgG elution buffer (Pierce Cat No. 21004) supplemented with Tween 20 to 0.05% and incubated at room temperature with shaking for 60 minutes. After pelleting the beads, 50 μL of the eluted mixture was removed, and added to 30 μL of 200 mM Tris base, mixed well, and then transferred to the DNA detection assay. For qPCR, 2.5 μL was transferred to 7.5 μL of mastermix with appropriate primers and probes (Applied Biosystems).
As shown in the diagram in FIG. 2, the PIK3CA kinase mediates signaling through two separate pathways, e.g., by direct activation of the kinase substrates FRAP1 (the kinase domain of mTOR), or other less-studied kinases known as “PDK2” in the literature and PDPK1, both of which in turn phosphorylate Akt. […] Therefore, using this cellular assay, compounds were interrogated for their inhibitory mechanism not only against PIK3CA but also against FRAP1 or PDPK1, by measuring site-specific phosphorylation of Akt. […] A binding assay using anti-total Akt1 antibody was also run in parallel to normalize the amount of measured phospho-Akt1 across wells.

PDPK1 = assay: Phospho-Akt1 (Thr308) cellular assay; format: cell-based, human; conditions: Hek 293 cells, FIG. 6
Procedure: as §1, with “On the following day, the cells were incubated with compound in M3 starvation media and incubated at 37° C. for 2 hours.” left out
As shown in the diagram in FIG. 2, the PIK3CA kinase mediates signaling through two separate pathways, e.g., by direct activation of the kinase substrates FRAP1 (the kinase domain of mTOR), or other less-studied kinases known as “PDK2” in the literature and PDPK1, both of which in turn phosphorylate Akt. […] A binding assay using anti-total Akt1 antibody was also run in parallel to normalize the amount of measured phospho-Akt1 across wells.

Row | SMILES | dose response in the phospho-Akt1 (Ser473) assay (FRAP1) | IC50 through the FRAP1 pathway compared with the PDPK1 pathway (FRAP1) | inhibition of Thr308 phosphorylation of Akt (PDPK1)
1 | Nc1nc(N)c2nc(-c3cccc(O)c3)c(-c3cccc(O)c3)nc2n1 [TG-100-115] | insensitive | – | –
2 | Oc1cccc(-c2nc(N3CCOCC3)c3oc4ncccc4c3n2)c1 [PI103] | – | nearly equipotent IC50 | –
3 | FC(F)c1nc2ccccc2n1-c1nc(N2CCOCC2)nc(N2CCOCC2)n1 [ZSTK-474] | – | nearly equipotent IC50s | –
4 | O=C(NCCCNc1nc(Nc2cccc(NC(=O)N3CCCC3)c2)ncc1I)c1cccs1 [BX-795] | insensitive | selectively inhibiting PDPK1 over FRAP1 | –
5 | C[C@@H]1C[C@H]2O[C@@H]2/C=C\C=C\C(=O)Cc2c(Cl)c(O)cc(O)c2C(=O)O1 [radicicol] | partially sensitive | – | could only partially inhibit Thr308 phosphorylation
